Where “and” joins values, the source holds several entries; their conditions need not be identical. Equal entries are not always repeated.
Columns and labels:
[1] = tested on: L. amazonensis; design: method as in PMID 15654435; conditions: promastigotes; cited from earlier work
[2] = tested on: L. braziliensis; design: method as in PMID 15654435; conditions: promastigotes; cited from earlier work
[3] = Cytotoxicity against host cells (MTT assay); type: cell-based; conditions: mouse, J774 macrophage cell line; J774 macrophages, MTT assay, 48 h, maximal concentration 100 μM; read-out: LC50
Description: (§1) The adherent-phenotype macrophage line was cultured in Dulbecco’s Modified Eagle’s medium (DMEM, Sigma, Dublin, Ireland) supplemented with 10% FBS at 37 °C, 95% humidity and 5% CO2.
(§2) To evaluate the cytotoxicity activity against the J774 cell line, the host cells were plated in 96-well vessels at 2 × 10^5 cells per well in a complete culture medium with 10% FBS at 37 °C. After 1 h, the wells were washed with HBSS to remove non-adherent cells, leaving approximately 1 × 10^5 adherent macrophages. The cells were cultured in DMEM complete medium supplemented with 10% FBS. The compounds and pentamidine were added at serial concentrations (0.1–100 µM). The cells were also cultured in media free from compounds, a vehicle (basal growth control) or media with DMSO 0.1% (vehicle control). The positive control (dead cells) was obtained through cellular lyses with 1% of Triton X-100 in DMEM complete medium. After 48 h, the cytotoxicity was evaluated using the MTT assay. The data obtained from the experiments were expressed as the mean ± S.E.M., and the significant differences between the treated and vehicle groups were evaluated using ANOVA and Dunnett post-hoc tests.

[4] = tested on: L. amazonensis promastigotes; assay: In vitro activity against L. amazonensis promastigotes; type: cell-based; conditions: Leishmania amazonensis, 48 h; for IC50: maximal concentration 100 μM; for Emax: up to 100 μM, read-out: Maximum Effect
Description: (§3) L. braziliensis promastigotes (MHOM/BR/87/BA788) were obtained from Dra. Valéria de Matos Borges at the Gonçalo Moniz Research Center, Fiocruz_BA. L. amazonensis promastigotes (MHOM/BR/77/LTB0016) were obtained from Dr. Eduardo Caio Torres dos Santos at the Oswaldo Cruz Institute-Fiocruz_RJ. The parasites were maintained in vitro in Schneider’s medium supplemented with 10% FBS and 2% human urine at 27 °C in BOD incubator.
(§4) The parasites were maintained in vitro in Schneider’s medium supplemented with 10% FBS and 2% human urine. Novel bis-lawsone analog stock solutions and pentamidine (reference leishmanicidal drug) were prepared in DMSO immediately before use. The cytotoxicities of the bis-lawsone analogs and pentamidine against the promastigotes were determined. Stationary phase L. braziliensis and L. amazonensis promastigotes were plated in 96-well vessels (Nunc, Roskilde, Denmark) at 1 × 10^5 cells per well in Schneider’s medium supplemented with 10% FBS and 2% human urine. Each compound solution was added at increasing concentrations (0.1–100 mg to the extract and its phases or 0.1–100 µΜ to the isolates and pentamidine). The cells were also cultured in a medium free of compounds, a vehicle (basal growth control) or with DMSO 0.1% (vehicle control). After 48 h, the extracellular load for L. braziliensis and L. amazonensis promastigotes was estimated by counting the promastigotes in Schneider’s medium using a CELM automatic cell counter (model CC530, Barueri, Brazil). The data obtained from experiments were expressed as the mean ± S.E.M., and the significant differences between the treated and vehicle groups were evaluated using ANOVA and Dunnett post-hoc tests.

[5] = tested on: L. braziliensis promastigotes; assay: In vitro activity against L. braziliensis promastigotes; type: cell-based, Leishmania braziliensis; conditions: for IC50 / Emax: Leishmania braziliensis, L. braziliensis promastigotes, 48 h; for IC50: maximal concentration 100 μM; for Emax: NT = no significant inhibitory activity for the parasite to 100 M (printed) compared to DMSO group, read-out: Maximum Effect; for Selectivity: IC50 to L. braziliensis lower than IC50 to L. amazonensis: ratio of promastigote IC50 values
Description: as §3, §4

[6] = tested on: Leishmania; design: method as in PMID 15654435; conditions: cited from earlier work
[7] = tested on: J774 cell line; assay: Cytotoxicity against host cells (MTT assay); type: cell-based; conditions: for Maximum Cytotoxicity: J774 macrophages, MTT assay, 48 h, NT = no significant lethal activity to cell until 100 M (printed) compared to DMSO group; for Effect on J774 cell line viability / cytotoxicity to the host cells (in words): 48 h of incubation, at 100 µM
Description: as §1, §2

[8] = tested on: L. amazonensis; assay: In vivo activity against Leishmania amazonensis in infected BALB/c mice; conditions: 30 μmol/kg/day × 28 days, i.p.; for Parasite load in the draining lymph node / Parasite load in the infected ear: limiting-dilution assay
From the text: (§5) This study was approved (protocol no. 2013.02) by the Ethics Committee for Animal Experimentation of the Federal University of Alagoas (Brazil). All animals received humane care in compliance with the “Principles of laboratory animal care” formulated by the National Society for Medical Research and the “Guide for the care and use of laboratory animals” prepared by the National Academy of Sciences (Washington, DC, USA). Next, 1 × 10^5 stationary promastigotes (5 days of culture in Schneider’s medium) of L. amazonensis (MHOM/BR/77/LTB0016) were subcutaneously inoculated into the right ear dermis of 6-week-old female BALB/c mice weighing ca. 20 g. and were later intraperitoneally treated with 3a or glucantime at 30 μmol/kg × 28 days. The lesion size was measured using a paquimeter. The parasite loads of infected ears and draining lymph nodes were determined using a quantitative limiting-dilution assay. Complex toxicity was also evaluated through biochemistry dosages in plasma. The experimental data were expressed as the mean ± S.E.M., and the significant differences between the treated and vehicle groups were evaluated using ANOVA and Dunnett post-hoc tests.

[9] = In vivo toxicity (spleen weight, plasma biochemistry) in infected BALB/c mice; conditions: BALB/c mice infected with L. amazonensis, 30 μmol/kg/day × 28 days, i.p.
From the text: as §5

[10] = tested on: promastigote forms; conditions: stated as reason for choice of reference drug; no reference given; cited from earlier work

Compound | CC50 at 48 h [3] | IC50 [4] | Emax [4] | IC50 [5] | Emax [5] | also measured
CC(=O)OC1=C(C=CC(C)C)C(=O)c2ccccc2C1=O [isolapachol acetate] | – | – | – | – | – | IC50 [1]: 1.6 µg/mL; IC50 [2]: 3.4 µg/mL
O=C1C(O)=C(C(C2=C(O)C(=O)c3ccccc3C2=O)c2ccc([N+](=O)[O-])cc2)C(=O)c2ccccc21 [Compound 3g, 3,3'-(4-Nitrophenylmethylene)-bis[2-hydroxy-1,4-naphthalenedione]] | > 100 µM | 7.7 ± 1.2 µM | 55.6 ± 3.2% | 2.8 ± 0.1 µM | 91.7 ± 1.3% | –
CC(C)CCC1=C(O)C(=O)c2ccccc2C1=O [dihydrolapachol] | – | – | – | – | – | Antileishmanial activity (in words) [6]: significant activity
N=C(N)c1ccc(OCCCCCOc2ccc(C(=N)N)cc2)cc1 [Pentamidine, reference compound] | 73 ± 6 µM | 2.3 ± 0.8 µM | 85.4 ± 0.4% | 0.8 ± 0.06 µM | 91 ± 0.1% | Maximum Cytotoxicity [7]: 78.0 ± 3.8 %; Maximum Cytotoxicity ([7]; listed as pentamidine): 78.0% ± 3.8%
isolapachol | – | – | – | – | – | Antileishmanial activity (in words) [6]: significant activity
O=C1C(O)=C(C(C2=C(O)C(=O)c3ccccc3C2=O)c2ccccc2)C(=O)c2ccccc21 [Compound 3d, 3,3'-(Phenylmethylene)-bis[2-hydroxy-1,4-naphthalenedione]] | > 100 µM | 0.3 ± 0.1 µM | 85 ± 3.8% | > 100 µM | – | Activity against promastigote forms of L. braziliensis (in words) ([5]; until 100 µM): did not present activity
CCC(CC)C(C1=C(O)C(=O)c2ccccc2C1=O)C1=C(O)C(=O)c2ccccc2C1=O [Compound 3c, 3,3'-(2-Ethylbutylidene)-bis[2-hydroxy-1,4-naphthalenedione]] | 67.4 ± 2.1 µM | 0.4 ± 0.1 µM | 75.3 ± 1.3% | 34.7 ± 4.3 µM | 90.4 ± 0.7% | Maximum Cytotoxicity [7]: 71.7% ± 3.8% and 71.7 ± 3.8 %
O=C1C(O)=C(C(C2=C(O)C(=O)c3ccccc3C2=O)c2ccc(F)cc2)C(=O)c2ccccc21 [Compound 3h, 3,3'-(4-Fluorophenylmethylene)-bis[2-hydroxy-1,4-naphthalenedione]] | > 100 µM | 0.6 ± 0.2 µM | 51 ± 5.5% | 0.8 ± 0.03 µM | 88.7 ± 0.3% | Effect on J774 cell line viability / cytotoxicity to the host cells (in words) [7]: without cytotoxicity
O=C1C(O)=C(CC2=C(O)C(=O)c3ccccc3C2=O)C(=O)c2ccccc21 [Compound 3a, 3,3'-(Methylene)-bis[2-hydroxy-1,4-naphthalenedione]] | > 100 µM | 71 ± 1.1 µM | 72.8 ± 1% | 0.9 ± 0.08 µM | 88.4 ± 0.9% | Effect on J774 cell line viability / cytotoxicity to the host cells (in words) [7]: without cytotoxicity; Selectivity: IC50 to L. braziliensis lower than IC50 to L. amazonensis [5]: 10 times; Parasite load in the draining lymph node [8]: did not decrease; Parasite load in the infected ear [8]: did not decrease; Lesion size for the infected ear ([8]; third week after the treatment began): decreased; Alanine aminotransferase (ALT) in plasma [9]: nor altered; Aspartate aminotransferase (AST) in plasma [9]: nor altered; Spleen weight ([9]; last day of treatment): neither induced a change
COc1ccc(C(C2=C(O)C(=O)c3ccccc3C2=O)C2=C(O)C(=O)c3ccccc3C2=O)cc1 [Compound 3e, 3,3'-(4-Methoxyphenylmethylene)-bis[2-hydroxy-1,4-naphthalenedione]] | > 100 µM | > 100 µM | 44.6 ± 2.4% | 0.9 ± 0.04 µM | 61.6 ± 7.5% | Effect on J774 cell line viability / cytotoxicity to the host cells (in words) [7]: without cytotoxicity; Selectivity: IC50 to L. braziliensis lower than IC50 to L. amazonensis [5]: 10 times
meglumine antimoniate [glucantime, reference compound] | – | – | – | – | – | Parasite load in the draining lymph node [8]: did not decrease; Parasite load in the infected ear [8]: did not decrease; Activity against promastigote forms (in words) [10]: not active
CCCCCC(C1=C(O)C(=O)c2ccccc2C1=O)C1=C(O)C(=O)c2ccccc2C1=O [Compound 3b, 3,3'-(Hexylidene)-bis[2-hydroxy-1,4-naphthalenedione]] | > 100 µM | 5.2 ± 0.1 µM | 57.2 ± 3.8% | 5.2 ± 0.1 µM | 93 ± 0.1% | Effect on J774 cell line viability / cytotoxicity to the host cells (in words) [7]: without cytotoxicity
CC(C)=CCC1=C(O)C(=O)c2ccccc2C1=O [Lapachol] | – | – | – | – | – | Antileishmanial activity (in words) [6]: significant activity
O=C1C(O)=C(C(C2=C(O)C(=O)c3ccccc3C2=O)c2ccc(O)cc2)C(=O)c2ccccc21 [Compound 3f, 3,3'-(4-Hydroxyphenylmethylene)-bis[2-hydroxy-1,4-naphthalenedione]] | > 100 µM | 68.7 ± 15.1 µM | 55.4 ± 4.7% | 38.7 ± 2 µM | 91.7 ± 0.3% | –

Reference: paper PMC6271274, “Synthesis, Leishmanicidal Activity and Theoretical Evaluations of a Series of Substituted bis-2-Hydroxy-1,4-Naphthoquinones” (Molecules, 2014)
